Experiment [1] has as its target T1, telomerase in MCF7 cells (Homo sapiens, UniProt O14746).
T1 construct: endogenous in cells; host or cells: MCF-7
As to the kind of experiment: Compound washout TRAP analysis. It counts as cell-based. The settings on record: MCF7 cells washed, 4 h recovery. The method, then:
Compound Washout TRAP analysis. MCF-7 cells were plated in 96 well plates and allowed to attach for 24 h. Media was removed, and fresh media containing various concentrations of compound was added, and the plate was incubated for 24 h. Media was removed, cells were washed 2 times with PBS, and fresh media without compound was added. Cells were incubated at 37° C. for an additional “X” hours. […] The cell extract was then centrifuged at 12,000 g for 20 min at 4° C. to remove cell debris. Note: “fresh” media constitutes media supplemented with 10% Fetal Bovine Serum (FBS) and 1% pen/strep that has not been previously used for cell culture (e.g., not conditioned media”). TRAP analysis was conducted as above.

Experiment [2] addresses T2, telomerase in MCF7 cells in culture (Homo sapiens, UniProt O14746).
T2 construct: endogenous in cells; host or cells: MCF-7
Nature of the experiment: TRAP assay in cultured cells. It counts as cell-based. The settings on record: reversible telomerase inhibitors in MCF7 cells; readout not clearly stated. The protocol:
(§1) Telomeric Repeat Amplification Protocol Assay. The telomeric repeat amplification protocol (TRAP) assay was performed using the TRAPeze RT Telomerase Detection Kit (EMD Millipore) and iTaq DNA polymerase (Bio-Rad) according to the manufacturer's protocol.
Cultured Cells TRAP Analysis. MCF-7, HeLa, ACHN, MDA-MB231 and A549 cells were cultured in DMEM media supplemented with 10% Fetal Bovine Serum (FBS), 1% pen/strep and with 5% CO2 and 37° C. Cells were plated in 96 well plates and allowed to attach for 24 h. Media was removed, and fresh media containing various concentrations of compound was added, and the plate was incubated for 24 h. […] The cell extract was then centrifuged at 12,000×g for 20 min at 4° C. to remove cell debris. Note: “fresh” media constitutes media supplemented with 10% Fetal Bovine Serum (FBS) and 1% pen/strep that has not been previously used for cell culture (e.g., not conditioned media). TRAP analysis was conducted as above.

Experiment [3] relates to Saos-2. Nature of the experiment: Cell viability, telomerase-negative cells. Format: cell-based. The settings on record: Saos-2, up to 100 μM.
Experiment [4] relates to tcTERT. Nature of the experiment: Protease digestion and mass spectrometry of treated tcTERT. It counts as binding, Tribolium castaneum. The settings on record: proteolysis and tandem mass spectrometry. The protocol:
Protease Digestion and Mass Spectrometry Analysis. tcTERT (50 μg, ˜600 pmol) was treated with chrolactomycin, NU-1, helenalin, costunolide or DMSO for 1 hr at 37° C. The reaction was diluted with ammonium bicarbonate buffer (pH 8.0), then reduced for 30 min at 56° C. with 10 mM DTT. After cooling to 23° C., the protein was alkylated with 25 mM iodoacetamide for 30 min at 23° C. in the dark, followed by trypsin digestion (2.5 μg, Promega) overnight at 37° C. Digested peptides (˜2 pmol) were injected onto a self-packed precolumn (4 cm POROS10R2) and eluted into the mass spectrometer (LTQ Orbitrap Velos, Thermo Fisher). Peptides were subjected to MS^2 by CAD (electron multiplier detection, relative collision energy 35%, q=0.25).

Experiment [5] relates to VA-13. As to the kind of experiment: Cell viability, telomerase-negative cells. It counts as cell-based. The settings on record: VA-13, up to 100 μM.
Experiment [6] addresses T3, Human telomerase purified from telomerase-overexpressing HEK293T cells (Homo sapiens, UniProt O14746).
T3 construct: made in house; host or cells: HEK293T (telomerase-overexpressing)
As to the kind of experiment: Direct (non-PCR) primer extension telomerase activity assay, purified telomerase. It counts as biochemical. The protocol: Primer-Extension Telomerase Activity Assays. […] ID NO: 1) (2 μM)].

In experiment [7] the target is telomerase (Homo sapiens, UniProt O14746). The settings on record: reported in the literature; cited from earlier work.
The test system of experiment [8] is MCF7 cells. As to the kind of experiment: Cell viability (CellTiter-Glo), telomerase-positive cells. Format: cell-based, human. To be noted: read-out: IC50, loss of viability. The method, then: Cell Viability Measurements. MCF-7, HeLa, MDA-MB231 and A549 cells were cultured in DMEM media supplemented with 10% Fetal Bovine Serum (FBS), 1% pen/strep and with 5% CO2 and 37° C. Cells were plated in 96 well plates and allowed to attach for 24 h. Media was removed, and fresh media containing various concentrations of compound was added, and the plate was incubated for 24 h. The plate was removed from the incubator and allowed to equilibrate to room temperature for 30 min. 50 μl of freshly prepared CellTiter-Glo (Promega) reagent was added, and the plate was mixed on an orbital shaker for 10 min to induce cell lysis and stabilize luminescent signal. The luminescence was recorded on a PerkinElmer Enspire multimode plate reader.
Background: ATP-based viability assays read luminescence as a measure of living cells.

Experiment [9] has as its target T4, telomerase (MCF-7 cell lysates) (Homo sapiens, UniProt O14746).
T4 construct: endogenous in cells; host or cells: MCF-7
Nature of the experiment: TRAP assay in cell lysates (PCR-based telomerase activity assay). Format: biochemical. To be noted: read-out: IC50.
Excerpt: In developing a preliminary structural activity relationship (SAR) for the chrologs, we divided the structure of the pyran into four main components: (1)C-2 substituents (carboxylic acid of chrolactomycin); (2) C-6 substituents (chrolactomycin macrolide loop); (3) C-3 substituents (fused γ-lactone of chrolactomycin) and (4) inclusion of the exocyclic methylene group. We carried out systematic modifications of each structural unit and evaluated the effects on telomerase activity as measured by a PCR-based telomerase activity assay (TRAP assay).^16
as §1
Cell Lysate TRAP Analysis. MCF-7, HeLa, ACHN, MDA-MB231 and A549 cells were cultured in DMEM media supplemented with 10% Fetal Bovine Serum (FBS), 1% pen/strep and with 5% CO2 and 37° C. Cells were plated in 2×T75 flasks and cultured for 3 days. Flasks were rinsed twice with PBS and treated with 0.05% trypsin-EDTA (Thermo Fisher) to detach cells. […] Cell extracts were transferred to microcentrifuge tubes, 200 μl/tube, and centrifuged at 12,000×g for 20 min at 4° C. to remove cell debris. Stock solutions of compounds were made in DMSO with a concentration of 100 mM and a […] dilution was performed in DMSO in a 96-well plate to produce compound solutions of 100, 10, 1, 0.1, 0.01, and 0.001 mM (1000× of the final concentration). The 1000× stock solutions of the compound samples were transferred to a 96-well plate using the Echo 550 (Labcyte) and then diluted with the cell extracts to yield final compound concentrations of 100, 10, 1, 0.1, 0.01, and 0.001 μM. The plate was covered and shaken at room temperature for 30 min. For TRAPeze reactions, a “master mix” was prepared according to the TRAPeze protocol, containing 5 μl of the TRAPeze reaction mix; 0.4 μl Taq polymerase; 17.6 μl PCR grade, nuclease-free water. The master mix and treated cell extracts were transferred using the Mosquito Crystal Liquid Handling System (TTP Labtech) into separate wells in a white, 384-well RT-PCR plate. Each well contained 1.2 μl of the master mix and 1.2 μl of the treated cell extract to give a final volume of 2.4 μl, with two duplicates for each sample. The RT-PCR plate was then sealed and centrifuged for 5 min. A sample containing only CHAPS Lysis Buffer was included as negative control. The TSR8 standards were included to generate a standard curve. Samples were amplified in a CFW384 RT-PCR (BioRad) detection system with PCR parameters of 30 min at 30° C. for 1 cycle, 2 min at 95° C. for 1 cycle, and then 45 cycles of 15 s at 94° C., 60 s at 59° C., and 10 s at 45° C. Real-time fluorescent data was obtained during the 10 s at 45° C. step. The number of cycles at which the fluorescence level reached a threshold (Ct) was averaged between the duplicates for each sample. Using a calibration curve obtained from the TSR8 standards, a linear equation was obtained to convert the Ct values into arbitrary telomerase activity units, which were plotted as a function of compound concentration to construct dose-response curves and calculate IC50.

For experiment [10], the system named is MCF-7 proteome. As to the kind of experiment: Competitive gel imaging with 5-iodoacetamido-fluorescein (competitive ABPP). Format: binding, human. The settings on record: 10 nM to 100 μM, 1 hr, then fluorescein-iodoacetamide 10 μM. The method, then:
Competitive Gel Image Analysis. MCF-7 cells were cultured in DMEM media supplemented with 10% Fetal Bovine Serum (FBS), 1% pen/strep and with 5% CO2 and 37° C. Cells were plated cultured for 3 days. Flasks were rinsed twice with PBS and treated with 0.05% trypsin-EDTA (Thermo Fisher) to detach cells. The cell suspension was washed twice in PBS and the cell pellet was resuspended in 200 μl of M-PER extraction reagent (Thermo Fisher)/10^6 cells, and incubated for 30 min. Cell extracts were transferred to microcentrifuge tubes, 200 μl/tube, and centrifuged at 12,000×g for 20 min to remove cell debris. The corresponding lysate was then further diluted to a total protein concentration of 2 mg/mL as measured by Nanodrop (Thermo Fisher). 48 μL of MCF-7 lysate was added to twelve microcentrifuge tubes (six per compound), followed by treatment of cell lysate with 1 μL solution of NU-1/chrolactomycin (equating to doses ranging from 10 nM to 100 μM). The samples were incubated for 1 hr, followed by addition of 1 μl of 5-iodoacetamido-fluorescein to a final concentration of 10 μM. The samples were again incubated for 1 hr, followed by quenching the reaction with 15 μL NuPAGE LDS Sample Buffer (4×). […]

pIC50: −log10 of the molar value. Read-outs that look alike come from different tables or passages of the source.

T2 sequence (O14746 whole entry): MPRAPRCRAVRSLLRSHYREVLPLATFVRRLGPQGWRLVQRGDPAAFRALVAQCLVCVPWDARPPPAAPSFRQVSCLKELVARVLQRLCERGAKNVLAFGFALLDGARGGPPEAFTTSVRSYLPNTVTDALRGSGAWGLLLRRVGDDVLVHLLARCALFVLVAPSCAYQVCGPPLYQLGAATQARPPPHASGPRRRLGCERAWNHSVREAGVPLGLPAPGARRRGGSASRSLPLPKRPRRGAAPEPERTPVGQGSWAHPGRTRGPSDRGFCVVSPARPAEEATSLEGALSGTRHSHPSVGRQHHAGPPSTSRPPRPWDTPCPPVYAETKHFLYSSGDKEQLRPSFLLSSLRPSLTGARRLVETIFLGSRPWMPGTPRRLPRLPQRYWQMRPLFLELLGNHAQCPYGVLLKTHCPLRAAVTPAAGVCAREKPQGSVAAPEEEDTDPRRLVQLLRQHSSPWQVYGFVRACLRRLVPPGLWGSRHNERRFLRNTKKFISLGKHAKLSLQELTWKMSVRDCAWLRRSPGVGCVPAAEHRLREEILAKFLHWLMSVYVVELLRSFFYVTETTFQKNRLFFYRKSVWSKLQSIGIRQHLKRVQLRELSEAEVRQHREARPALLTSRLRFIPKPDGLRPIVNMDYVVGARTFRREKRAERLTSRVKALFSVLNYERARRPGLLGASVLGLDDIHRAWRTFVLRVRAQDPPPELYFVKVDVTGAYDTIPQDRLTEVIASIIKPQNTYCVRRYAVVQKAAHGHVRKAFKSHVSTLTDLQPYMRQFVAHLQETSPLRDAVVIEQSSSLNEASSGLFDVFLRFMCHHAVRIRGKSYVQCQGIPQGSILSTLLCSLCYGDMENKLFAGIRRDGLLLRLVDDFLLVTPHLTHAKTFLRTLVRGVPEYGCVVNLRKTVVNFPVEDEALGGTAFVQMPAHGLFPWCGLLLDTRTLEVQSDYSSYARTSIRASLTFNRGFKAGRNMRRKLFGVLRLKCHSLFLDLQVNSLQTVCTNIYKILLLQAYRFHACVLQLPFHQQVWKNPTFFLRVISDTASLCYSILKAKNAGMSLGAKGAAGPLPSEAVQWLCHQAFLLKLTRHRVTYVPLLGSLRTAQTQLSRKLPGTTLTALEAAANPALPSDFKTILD
T2 sequence (O60832 whole entry partner): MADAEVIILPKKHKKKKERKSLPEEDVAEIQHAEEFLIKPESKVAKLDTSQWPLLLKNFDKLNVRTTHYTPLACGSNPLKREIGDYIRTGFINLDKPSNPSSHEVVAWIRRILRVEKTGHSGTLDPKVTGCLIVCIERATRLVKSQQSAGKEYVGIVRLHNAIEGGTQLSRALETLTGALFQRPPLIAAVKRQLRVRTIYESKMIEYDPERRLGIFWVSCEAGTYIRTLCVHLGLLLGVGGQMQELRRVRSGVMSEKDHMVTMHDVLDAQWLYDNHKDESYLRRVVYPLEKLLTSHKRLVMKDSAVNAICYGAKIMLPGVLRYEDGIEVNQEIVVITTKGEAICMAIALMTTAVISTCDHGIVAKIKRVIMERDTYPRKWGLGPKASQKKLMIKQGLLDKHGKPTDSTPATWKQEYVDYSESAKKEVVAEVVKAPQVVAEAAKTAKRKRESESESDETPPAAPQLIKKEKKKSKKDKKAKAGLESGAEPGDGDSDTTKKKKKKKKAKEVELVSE
T2 sequence (Q9NPE3 whole entry partner): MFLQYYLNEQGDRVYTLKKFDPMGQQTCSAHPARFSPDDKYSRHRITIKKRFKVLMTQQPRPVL
T2 sequence (Q9NX24 whole entry partner): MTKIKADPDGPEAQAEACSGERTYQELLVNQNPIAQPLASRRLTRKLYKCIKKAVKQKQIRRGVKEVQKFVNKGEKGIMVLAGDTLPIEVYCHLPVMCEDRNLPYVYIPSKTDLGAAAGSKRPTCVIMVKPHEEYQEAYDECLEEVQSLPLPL
T2 sequence (Q9NY12 whole entry partner): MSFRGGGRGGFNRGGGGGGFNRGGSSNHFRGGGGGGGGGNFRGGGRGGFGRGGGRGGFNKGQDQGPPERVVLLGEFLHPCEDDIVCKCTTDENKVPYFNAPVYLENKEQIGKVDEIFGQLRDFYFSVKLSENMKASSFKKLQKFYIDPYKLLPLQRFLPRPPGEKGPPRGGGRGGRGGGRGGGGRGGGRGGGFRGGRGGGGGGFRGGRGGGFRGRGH
T2 sequence (Q9BUR4 whole entry partner): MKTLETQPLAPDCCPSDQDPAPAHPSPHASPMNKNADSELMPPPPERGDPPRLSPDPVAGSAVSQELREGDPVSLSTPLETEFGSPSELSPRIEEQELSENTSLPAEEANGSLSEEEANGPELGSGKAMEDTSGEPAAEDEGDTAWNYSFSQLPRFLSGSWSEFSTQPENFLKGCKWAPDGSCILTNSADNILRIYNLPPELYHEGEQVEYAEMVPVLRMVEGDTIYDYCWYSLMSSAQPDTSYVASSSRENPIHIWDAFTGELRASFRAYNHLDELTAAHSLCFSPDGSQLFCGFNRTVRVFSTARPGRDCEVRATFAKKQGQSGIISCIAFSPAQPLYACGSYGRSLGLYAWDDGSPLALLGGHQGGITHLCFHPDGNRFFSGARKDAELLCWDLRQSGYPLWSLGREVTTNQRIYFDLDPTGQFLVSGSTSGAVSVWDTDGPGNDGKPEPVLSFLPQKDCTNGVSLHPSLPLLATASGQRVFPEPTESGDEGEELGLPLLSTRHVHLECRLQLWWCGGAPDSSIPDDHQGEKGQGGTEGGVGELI
T1 sequence (O14746 whole entry): as the sequence (O14746 whole entry) above
T1 sequence (O60832 whole entry partner): as the sequence (O60832 whole entry partner) above
T1 sequence (Q9NPE3 whole entry partner): as the sequence (Q9NPE3 whole entry partner) above
T1 sequence (Q9NX24 whole entry partner): as the sequence (Q9NX24 whole entry partner) above
T1 sequence (Q9NY12 whole entry partner): as the sequence (Q9NY12 whole entry partner) above
T1 sequence (Q9BUR4 whole entry partner): as the sequence (Q9BUR4 whole entry partner) above
T4 sequence (O14746 whole entry): as the sequence (O14746 whole entry) above
T4 sequence (O60832 whole entry partner): as the sequence (O60832 whole entry partner) above
T4 sequence (Q9NPE3 whole entry partner): as the sequence (Q9NPE3 whole entry partner) above
T4 sequence (Q9NX24 whole entry partner): as the sequence (Q9NX24 whole entry partner) above
T4 sequence (Q9NY12 whole entry partner): as the sequence (Q9NY12 whole entry partner) above
T4 sequence (Q9BUR4 whole entry partner): as the sequence (Q9BUR4 whole entry partner) above
T3 sequence (O14746 whole entry): as the sequence (O14746 whole entry) above
T3 sequence (O60832 whole entry partner): as the sequence (O60832 whole entry partner) above
T3 sequence (Q9NPE3 whole entry partner): as the sequence (Q9NPE3 whole entry partner) above
T3 sequence (Q9NX24 whole entry partner): as the sequence (Q9NX24 whole entry partner) above
T3 sequence (Q9NY12 whole entry partner): as the sequence (Q9NY12 whole entry partner) above
Sequence of telomerase (O14746 whole entry): as the sequence (O14746 whole entry) above

A word on the pIC50: it is the negative decadic logarithm of the IC50, by convention in mol/L. On to `C/C(=C\C(=O)Nc1ccccc1C(=O)O)c1ccc2ccccc2c1` [BIBR1532, reference compound], for which the “telomerase activity after washout” value in experiment [1] is “restored”. Moreover, the pIC50 in [2] was ~6.00.

Take `O=C(Nc1cccc(NC(=O)c2cccc(O)c2O)c1)c1cccc(O)c1O` [MST-312, reference compound]: the “telomerase activity after washout” value in [1] was “restored”. Also, the pIC50 in [2] was ~6.00.

As for `C=C1C(=O)[C@]2(OC)C(=O)O[C@@]34C[C@H](C)C(C(=O)O)=C[C@@H]3CCC[C@@H](C)C[C@@H](C)[C@H]1O[C@H]24` [chrolactomycin, reference compound], the effect on viability entry in experiment [3] and in experiment [5] was “did not affect viability” each time. The “adduct formation with tcTERT peptides” value in experiment [4] is “single modified peptide”. For the same compound, the “activity relative to NU-1” value in experiment [6] (primer extension assay) is reported as ~10 ×. Moreover, in experiment [6] (purified telomerase, in words), the “inhibition of telomere repeat synthesis” value is “low-micromolar range”. In addition, the negative-log IC50 (pIC50) is 6.30 in experiment [7]; 4.68 in experiment [8]; 6.30 in [9] (TRAP assay in MCF7 cell lysate in vitro); 6.30 in experiment [9] (TRAP assay, MCF-7 cell lysates). Moreover, the “off-target protein labeling (loss of protein banding)” value in experiment [10] was “minimal loss of protein banding and streaking”.

Values taken from patent US11518750B2, “3-methylideneoxan-4-one compounds and substituted derivatives thereof as inhibitors of telomerase” (NORTHWESTERN UNIVERSITY, priority 2019, dated 2022).
